Test [1] has as its system Wnt-responsive Sp5-Luc reporter in SW480 colon carcinoma cells. Nature of the test: Screening assay for Wnt activity (Sp5-Luc reporter gene assay). The following applies: Homo sapiens; for EC50: SW480; for inhibition at 10 µM: SW480, read-out: percent inhibition at 10 μM. A general note: Reporter assays use an easily measured gene product as a stand-in for the process of interest.

In the next test the target is DYRK1A kinase (Homo sapiens, UniProt Q13627). Nature of the test: DYRK1A kinase activity (Ser/Thr 18 peptide Z-lyte FRET assay).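 Note: kinase activity read as coumarin/fluorescein emission ratio after development step, with unphosphorylated and phosphorylated peptide forms setting 0% and 100% controls, values from dose-response curves.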 The class given is biochemical. Conditions: recombinant DYRK1A, 30 μM ATP, one hour at room temperature.
The next test has as its target GSK3β kinase (Homo sapiens, UniProt P49841). Description: GSK3β kinase activity (Ser/Thr 09 peptide Z-lyte FRET assay). The format is biochemical.
Test [2] concerns α-smooth muscle actin (aSMA) positive LL29 cells. Description: Inhibition of the fibrotic process: αSMA staining in TGF-β1 treated LL29 fibroblasts from IPF patients. Conditions: Homo sapiens, Fibroblast; for EC50: 96 h; for inhibition at 10 µM: read-out: percentage in parentheses after EC50 >10.
The subject of test [3] is SW480 colon carcinoma cells. Nature of the test: Cell viability assay (CellTiter-Glo). The following applies: Homo sapiens; for EC50: SW480, 96 h; for inhibition at 10 µM: SW480, read-out: percent inhibition at 10 μM.
The subject of another test is IL-6. Nature of the test: IL-6 inhibition in LPS-stimulated human peripheral blood mononuclear cells (HTRF). Conditions: Homo sapiens, PBMC; for EC50: 22 h; for inhibition at 10 µM: read-out: percentage in parentheses after EC50 >10. (In general: Time-resolved FRET reads energy transfer from a long-lived donor to a nearby acceptor.)
Test [4] has as its system secreted cytokines TNFα, IL-6 and KC-GRO. Nature of the test: Secreted cytokines in Lipopolysaccharide-stimulated BV-2 cells (Table 9 does not say which cytokine). The class given is cell-based, mouse. The following applies: Mus musculus, BV-2, 5 h.
[5] abbreviates: recombinant kinase, 46 μM ATP, one hour at room temperature, read-out: EC50.

Where two headings read alike, the source gives them in different places. Where only a bound is given, the exact number is not on record here.

GSK3β kinase, sequence (P49841 whole entry): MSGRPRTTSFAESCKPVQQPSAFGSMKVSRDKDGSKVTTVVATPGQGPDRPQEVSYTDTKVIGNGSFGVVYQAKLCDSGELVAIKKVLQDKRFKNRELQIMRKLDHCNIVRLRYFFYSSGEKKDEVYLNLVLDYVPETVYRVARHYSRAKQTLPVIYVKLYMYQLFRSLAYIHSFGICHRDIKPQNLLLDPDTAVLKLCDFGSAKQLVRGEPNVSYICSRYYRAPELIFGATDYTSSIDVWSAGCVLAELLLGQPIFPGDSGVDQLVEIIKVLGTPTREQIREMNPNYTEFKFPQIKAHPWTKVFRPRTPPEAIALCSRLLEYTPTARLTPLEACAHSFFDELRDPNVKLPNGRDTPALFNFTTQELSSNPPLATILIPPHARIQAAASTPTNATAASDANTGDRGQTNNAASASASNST

Take `Cn1cc(-c2ccc3cnc(NC(=O)c4ccnc(OC5CCNCC5)c4)cc3n2)cn1` [Compound 153, N-(2-(1-Methyl-1H-pyrazol-4-yl)-1,6-naphthyridin-7-yl)-2-(piperidin-4-yloxy)isonicotinamide]: the EC50 (as a rule, the concentration needed to bring the measured effect to its halfway point) in test [1] amounted to 111 nM; on DYRK1A kinase, 4 nM; at GSK3β kinase (setting [5]), 6 µM; in test [2], 1100 nM; in test [3], 353 nM; in the test with IL-6, 2.07 µM. In test [4] (read-out: EC50), the EC50 worked out at 159 nM.
Regarding `CN1CCC(n2cc(C(=O)Nc3cc4cc(-c5cnn(C)c5)ncc4cn3)cn2)CC1` [Compound 3856, N-(6-(1-Methyl-1H-pyrazol-4-yl)-2,7-naphthyridin-3-yl)-1-(1-methylpiperidin-4-yl)-1H-pyrazole-4-carboxamide], the EC50 in test [1] is 367 nM; at DYRK1A kinase, 10 nM; on GSK3β kinase (setting [5]), 1.75 µM; in test [2] it was over 10000 nM; in test [3], 446 nM; in the test on IL-6, 3.99 µM. For the same molecule, the EC50 in test [4] (read-out: EC50) was 194 nM. Besides, in test [2], the inhibition at 10 µM is 17.5%.
Turning to `Cc1ncc(-c2cnc3cnc(NC(=O)C4CCN(C5COC5)CC4)cc3c2)s1` [Compound 4622, N-(3-(2-methylthiazol-5-yl)-1,7-naphthyridin-6-yl)-1-(oxetan-3-yl)piperidine-4-carboxamide], the EC50 in test [1] was over 10000 nM; on DYRK1A kinase it was 40 nM; on GSK3β kinase (setting [5]), 4.63 µM; in test [2] it was over 10000 nM; in test [3], over 10000 nM; in the test on IL-6, over 10 µM. Also, the 50% effective concentration (EC50) in test [4] (read-out: EC50) was 1400 nM. Moreover, the inhibition at 10 µM came to 50% in test [1], 29.4% in test [2], 27.9% in test [3] and 2.3% with IL-6.
In the case of `CN(C)Cc1ccc(C(=O)Nc2cc3cc(-c4cnn(C)c4)ncc3cn2)cc1` [Compound 3797, 4-((Dimethylamino)methyl)-N-(6-(1-methyl-1H-pyrazol-4-yl)-2,7-naphthyridin-3-yl)benzamide], the half-maximal effective concentration (EC50) was 427 nM in test [1]; 8 nM at DYRK1A kinase; 0.409 µM at GSK3β kinase (setting [5]); 2700 nM in test [2]; 7020 nM in test [3]; over 10 µM in the test on IL-6. Moreover, in test [4] (read-out: EC50), the EC50 was determined as 54 nM. Also, in the test with IL-6, the inhibition at 10 µM was determined as 7%.
On to `Cn1cc(-c2cnc3cnc(NC(=O)c4ccc5ccoc5c4)cc3c2)cn1` [Compound 2929, N-(3-(1-Methyl-1H-pyrazol-4-yl)-1,7-naphthyridin-6-yl)benzofuran-6-carboxamide], for which the EC50 was 835 nM in test [1]; 17 nM at DYRK1A kinase; over 10 µM at GSK3β kinase (setting [5]); 2250 nM in test [2]; 1060 nM in test [3]; over 10 µM with IL-6. In test [4] (read-out: EC50), the EC50 came out at 234 nM. In addition, the inhibition at 10 µM in the test on IL-6 turned out to be 4.5%.
On to `CN1CCN(c2cc(C(=O)Nc3ncc4ccc(-c5ccc(N)nc5)cc4n3)ccn2)CC1` [Compound 1713, N-(7-(6-Aminopyridin-3-yl)quinazolin-2-yl)-2-(4-methylpiperazin-1-yl)isonicotinamide], for which the 50% effective concentration (EC50) was 1140 nM in test [1]; 27 nM on DYRK1A kinase; over 10 µM at GSK3β kinase; 5160 nM in test [2]; 1560 nM in test [3]; over 10 µM in the test on IL-6. In test [4], this molecule had an EC50 of 1000 nM. Besides, in the test on IL-6, the inhibition at 10 µM worked out at 5.7%.
Take `CN1CCC(Oc2cccc(C(=O)Nc3ncc4ccc(-c5cnco5)cc4n3)c2)CC1` [Compound 1497, 3-((1-Methylpiperidin-4-yl)oxy)-N-(7-(oxazol-5-yl)quinazolin-2-yl)benzamide]: the EC50 in test [1] is over 10000 nM; at DYRK1A kinase, 30 nM; at GSK3β kinase (setting [5]) it was over 10 µM; in test [2] it was 2430 nM; in test [3], over 10000 nM; in the test on IL-6, over 10 µM. For the same molecule, in test [4] (read-out: EC50), the EC50 is 334 nM. Further, the inhibition at 10 µM in test [1] worked out at 41.7%; in test [3], 23.7%; in the test with IL-6, 4.8%.
For the molecule `CN1CCC(n2cc(C(=O)Nc3cc4cc(-c5cncc6[nH]ccc56)cnc4cn3)cn2)CC1` [Compound 3616, N-(3-(1H-Pyrrolo[2,3-c]pyridin-4-yl)-1,7-naphthyridin-6-yl)-1-(1-methylpiperidin-4-yl)-1H-pyrazole-4-carboxamide], the EC50 in test [1] was 485 nM; on DYRK1A kinase it was 29 nM; at GSK3β kinase (setting [5]), over 10 µM; in test [2], 3160 nM; in test [3], 504 nM; in the test with IL-6, 2.37 µM. Also, in test [4] (read-out: EC50), the EC50 was 1200 nM.
As to `Cn1cc(-c2ccc3cnc(NC(=O)c4ccc5ccoc5c4)nc3c2)cn1` [Compound 1116, N-(7-(1-Methyl-1H-pyrazol-4-yl)quinazolin-2-yl)benzofuran-6-carboxamide], the EC50 in test [1] is 791 nM; at DYRK1A kinase it was 15 nM; at GSK3β kinase (setting [5]) it was over 10 µM; in test [2], 2720 nM; in test [3], 3030 nM; with IL-6, over 10 µM. For the same molecule, in test [4] (read-out: EC50), the EC50 was determined as 960 nM. In addition, in the test with IL-6, the inhibition at 10 µM was 3.8%.
As to `CN1CCC(C(=O)Nc2cc3cc(-c4cnsc4)cnc3cn2)CC1` [Compound 3412, N-(3-(Isothiazol-4-yl)-1,7-naphthyridin-6-yl)-1-methylpiperidine-4-carboxamide], the EC50 in test [1] is over 10000 nM; on DYRK1A kinase it was 40 nM; at GSK3β kinase (setting [5]), over 10 µM; in test [2], over 10000 nM; in test [3] it was over 10000 nM; in the test on IL-6 it was over 10 µM. Also, the EC50 in test [4] (read-out: EC50) is 1500 nM. In addition, the inhibition at 10 µM was determined as 47.1% in test [1], 46.2% in test [2], 41.5% in test [3] and 2.7% with IL-6.
`CC(C)OCCC(=O)Nc1cc2nc(-c3cncn3C)ccc2cn1` [Compound 416, 3-Isopropoxy-N-(2-(1-methyl-1H-imidazol-5-yl)-1,6-naphthyridin-7-yl) propanamide]: the EC50 in test [1] was 386 nM; at DYRK1A kinase, 31 nM; at GSK3β kinase (setting [5]) it was 0.049 µM; in test [2], 355 nM; in test [3], over 10000 nM; in the test on IL-6, 5.76 µM. Moreover, the EC50 in test [4] (read-out: EC50) amounted to 3300 nM. The inhibition at 10 µM in test [3] worked out at 52.1%.
`Cn1cncc1-c1cnc2cnc(NC(=O)c3cccc(CN4CCCC4)c3)cc2c1` [Compound 3259, N-(3-(1-Methyl-1H-imidazol-5-yl)-1,7-naphthyridin-6-yl)-3-(pyrrolidin-1-ylmethyl)benzamide]: the EC50 in test [1] is 3500 nM; at DYRK1A kinase it was 24 nM; at GSK3β kinase (setting [5]), over 10 µM; in test [2], over 10000 nM; in test [3], 1940 nM; with IL-6 it was over 10 µM. Besides, the EC50 in test [4] (read-out: EC50) was 1200 nM. Further, the inhibition at 10 µM was 48.4% in test [2] and 4.1% in the test on IL-6.
For `CN1CCN(c2ncc(C(=O)Nc3ncc4ccc(-c5cnn(C)c5)cc4n3)s2)CC1` [Compound 4570, N-(7-(1-Methyl-1H-pyrazol-4-yl)quinazolin-2-yl)-2-(4-methylpiperazin-1-yl) thiazole-5-carboxamide], the EC50 in test [1] is 3260 nM; at DYRK1A kinase, 3 nM; on GSK3β kinase (setting [5]), 2.19 µM; in test [2], over 10000 nM; in test [3] it was 5620 nM; with IL-6, over 10 µM. In addition, the 50% effective concentration (EC50) in test [4] (read-out: EC50) was 128 nM. Further, the values for the inhibition at 10 µM (in test [2]; with IL-6) were 5.5% and 18.4%, respectively.
For the molecule `CN1CCc2ccc(C(=O)Nc3cc4cc(-c5cnn(C)c5)ncc4cn3)cc2C1` [Compound 3829, 2-Methyl-N-(6-(1-methyl-1H-pyrazol-4-yl)-2,7-naphthyridin-3-yl)-1,2,3,4-tetrahydroisoquinoline-7-carboxamide], the EC50 was 994 nM in test [1]; 10 nM at DYRK1A kinase; 0.763 µM at GSK3β kinase (setting [5]); 759 nM in test [2]; 9320 nM in test [3]; over 10 µM in the test with IL-6. Also, the concentration for a half-maximal effect (EC50) in test [4] (read-out: EC50) was found to be 533 nM. Moreover, the inhibition at 10 µM in the test on IL-6 was found to be 5.3%.
For the molecule `CN1CCCN(c2cc(C(=O)Nc3cc4nc(-c5cn(C)nn5)ccc4cn3)ccn2)CC1` [Compound 379, 2-(4-Methyl-1,4-diazepan-1-yl)-N-(2-(1-methyl-1H-1,2,3-triazol-4-yl)-1,6-naphthyridin-7-yl)isonicotinamide], the EC50 in test [1] stood at 1600 nM; at DYRK1A kinase it was 11 nM; on GSK3β kinase (setting [5]), 0.359 µM; in test [2], 2140 nM; in test [3], 1340 nM; in the test on IL-6, 2.08 µM. In addition, the EC50 in test [4] (read-out: EC50) was determined as 734 nM.
Take `CC(C)n1cc(C(=O)Nc2cc3cc(-c4cncc(NC5CCN(C)CC5)n4)cnc3cn2)cn1` [Compound 3627, 1-Isopropyl-N-(3-(6-((1-methylpiperidin-4-yl)amino)pyrazin-2-yl)-1,7-naphthyridin-6-yl)-1H-pyrazole-4-carboxamide]: the EC50 in test [1] is 1680 nM; at DYRK1A kinase, 7 nM; at GSK3β kinase (setting [5]), over 10 µM; in test [2] it was over 10000 nM; in test [3] it was 3420 nM; with IL-6, over 10 µM. The EC50 in test [4] (read-out: EC50) came to 708 nM. Also, the inhibition at 10 µM in test [2] amounted to 33.4%; in the test on IL-6, 10.6%.

Source of the values: US10703748B2, “Diazanaphthalen-3-yl carboxamides and preparation and use thereof” (Samumed, LLC, priority 2017, dated 2020).
